Assay results from the supplement of paper PMC11061612.

Columns and labels:
Test in all cases: combination Emax (second highest fraction inhibited in the dose matrix, 72 h); higher = more inhibition; extreme values may be limits of the assay
[1] = test system: SK-LU-1 (Lung Adenocarcinoma)
In short: (§1)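 After 24 hours at 37°C and 5% CO2 in 1536-well plates, cells in DMEM/F12 or RPMI plus 10% FBS received two-drug dose matrices for 72 hours. Viability came from CellTiter-Glo 2.0 luminescence and was scaled as inhibition, anchored at 0 by vehicle wells and at 1 by blank wells. Combination Emax is taken as the second-highest inhibition in the matrix, and Bliss excess as the observed combination effect less EA + EB − EA·EB, with EA and EB the single-agent effects.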

[2] = test system: COLO-668 (Small Cell Lung Carcinoma)
In short: as §1

[3] = test system: HAL-01 (B-Lymphoblastic Leukemia)
In short: as §1

[4] = test system: OE33 (Esophageal Adenocarcinoma)
In short: as §1

[5] = test system: Mo-T (Other Blood Carcinomas)
In short: as §1

[6] = test system: EFO-21 (Ovarian Carcinoma)
In short: as §1

[7] = test system: DU-145 (Prostate Carcinoma)
In short: as §1

[8] = test system: ME-180 (Cervical Carcinoma)
In short: as §1

[9] = test system: MOG-G-UVW (Low Grade Glioma)
In short: as §1

[10] = test system: NCI-H522 (Lung Adenocarcinoma)
In short: as §1

[11] = test system: MV-4-11 (Acute Myeloid Leukemia)
In short: as §1

[12] = test system: KGN (Other Solid Carcinomas)
In short: as §1

[13] = test system: NCI-H2122 (Lung Adenocarcinoma)
In short: as §1

[14] = test system: NCI-H650 (Lung Adenocarcinoma)
In short: as §1

[15] = test system: G-401 (Other Solid Carcinomas)
In short: as §1

Hey (Ovarian Carcinoma) = test system: Hey (Ovarian Carcinoma)
In short: as §1

[16] = test system: HCC1500 (Breast Carcinoma)
In short: as §1

EW-1 (Ewing's Sarcoma) = test system: EW-1 (Ewing's Sarcoma)
In short: as §1

[17] = test system: CADO-ES1 (Ewing's Sarcoma)
In short: as §1

[18] = test system: OACM5-1 (Esophageal Adenocarcinoma)
In short: as §1

Structure (SMILES)	combination Emax [1]	combination Emax [2]	combination Emax [3]	combination Emax [4]	combination Emax [5]	combination Emax [6]	combination Emax [7]	combination Emax [8]	combination Emax [9]	combination Emax [10]	combination Emax [11]	combination Emax [12]	combination Emax [13]	combination Emax [14]	combination Emax [15]	combination Emax (Hey (Ovarian Carcinoma))	combination Emax [16]	combination Emax (EW-1 (Ewing's Sarcoma))	combination Emax [17]	combination Emax [18]
O=C(c1cc(Cc2n[nH]c(=O)c3ccccc23)ccc1F)N1CCN(C(=O)C2CC2)CC1 [Olaparib] + COc1nnc2ccc(N3CCC(c4ccc(OCCN5CCN(C)C(=O)[C@H]5C)cc4)CC3)nn12 [AZD5153] (first compound max 10 µM, 7x7, partner max 1 µM)	0.332	0.323	0.801	0.224	0.59	0.353	0.219	0.424	0.641	0.309	1	0.712								
Cc1nc(-c2cn3c(n2)-c2ccc(-c4cnn(C(C)(C)C(N)=O)c4)cc2OCC3)n(C(C)C)n1 [Taselisib] + O=C(Nc1ccc2[nH]nc(-c3ccncc3)c2c1)[C@@H]1CCN(CC(=O)N2CCN(c3ccc(-c4ncccn4)cc3)CC2)C1 [SCH772984] (first compound max 10 µM, 7x7, partner max 5 µM)	0.516	0.855	0.78	0.831	0.477	0.409	0.342	0.732	0.884	0.339	0.905	0.816								
CN(CCO)CC[C@H](CSc1ccccc1)Nc1ccc(S(=O)(=O)NC(=O)c2ccc(N3CCC([C@@H](O)c4ccccc4-c4ccc(Cl)cc4)CC3)cc2)cc1S(=O)(=O)C(F)(F)F [AZD4320] + CS(=O)(=O)CCNCc1ccc(-c2ccc3ncnc(Nc4ccc(OCc5cccc(F)c5)c(Cl)c4)c3c2)o1 [Lapatinib] (first compound max 1 µM, 7x7, partner max 10 µM)	0.47	0.975	1	0.806	0.959	0.491	0.174	0.7	0.298	0.237	1	0.494								
C[C@@H]1COCCN1c1cc(C2([S@](C)(=N)=O)CC2)nc(-c2ccnc3[nH]ccc23)n1 [AZD6738] + Nc1ccn([C@@H]2O[C@H](CO)[C@@H](O)C2(F)F)c(=O)n1 [Gemcitabine] (first compound max 10 µM, 7x7, partner max 0.3 µM)	0.415	0.854	1	0.752	0.812	0.625	0.583	0.913	0.967	0.912	1	0.969								
C[C@@H](Nc1cc(F)cc(F)c1)c1cc(C(=O)N(C)C)cc2c(=O)cc(N3CCOCC3)oc12 [AZD8186] + CC(=O)c1c(C)c2cnc(Nc3ccc(N4CCNCC4)cn3)nc2n(C2CCCC2)c1=O [Palbociclib] (first compound max 10 µM, 7x7, partner max 10 µM)	0.434	0.378	0.793	0.477	0.383	0.325	0.417	0.391	0.718	0.147	0.859	0.798								
C[C@@H](Oc1cc(-c2cnn(C3CCNCC3)c2)cnc1N)c1c(Cl)ccc(F)c1Cl [Crizotinib] + Cn1cnc2c(F)c(Nc3ccc(Br)cc3Cl)c(C(=O)NOCCO)cc21 [Selumetinib] (first compound max 10 µM, 7x7, partner max 10 µM)	0.34	0.852	0.991	0.539	0.466	0.224	0.12	0.269	0.77	0.117	1	0.816								
C[C@@H]1COCCN1c1cc(C2([S@](C)(=N)=O)CC2)nc(-c2ccnc3[nH]ccc23)n1 [AZD6738] + C1CC(C1)(C(=O)[O-])C(=O)[O-].N.N.[Pt+2] [Carboplatin] (first compound max 10 µM, 7x7, partner max 10 µM)	0.497	0.567	0.963	0.771	0.366	0.263	0.351	0.663	0.723	0.194	0.974	0.79								
O=C(c1cc(Cc2n[nH]c(=O)c3ccccc23)ccc1F)N1CCN(C(=O)C2CC2)CC1 [Olaparib] + Cc1c2c(nn1C)CSCc1cc(n(C)n1)CSc1cc(c3ccccc3c1)OCCCc1c(C(=O)O)n(C)c3c-2c(Cl)ccc13 [AZD5991] (first compound max 10 µM, 7x7, partner max 1 µM)	0.216	0.0291	0.269	0.0347	0.0919	0.117	0.121	0.1	0.408	0.479	1	0.162								
COc1cccc(OCCCN)c1-c1cc(Nc2cnc(C#N)cn2)n[nH]1 [Prexasertib] + C=CCn1c(=O)c2cnc(Nc3ccc(N4CCN(C)CC4)cc3)nc2n1-c1cccc(C(C)(C)O)n1 [AZD1775] (first compound max 1 µM, partner max 1 µM)		0.881	1	0.829	0.539	0.742	0.691	0.652	0.943	0.676	1	0.862	0.984	0.732	0.905	0.837	0.541	0.966	0.946	0.802
COc1cccc(OCCCN)c1-c1cc(Nc2cnc(C#N)cn2)n[nH]1 [Prexasertib] + O=C(c1cc(Cc2n[nH]c(=O)c3ccccc23)ccc1F)N1CCN(C(=O)C2CC2)CC1 [Olaparib] (first compound max 1 µM, 7x7, partner max 10 µM)		0.736	1	0.691	0.52	0.61	0.603	0.429	0.926	0.418	0.998	0.829	1	0.708	0.533	0.827	0.286	0.96	0.943	0.641
CC1(C)CCC(CN2CCN(c3ccc(C(=O)NS(=O)(=O)c4ccc(NCC5CCOCC5)c([N+](=O)[O-])c4)c(Oc4cnc5[nH]ccc5c4)c3)CC2)=C(c2ccc(Cl)cc2)C1 [Venetoclax] + C1CN(CCC1(C(=O)N[C@@H](CCO)C2=CC=C(C=C2)Cl)N)C3=NC=NC4=C3C=CN4 [Capivasertib] (first compound max 1 µM, 7x7, partner max 3 µM)		0.469	0.916	0.184	0.604	0.222	0.2	0.517	0.455	0.133	1	0.389	0.498	0.143	0.518	0.24	0.704	0.365	0.667	0.592
CC1(C)CCC(CN2CCN(c3ccc(C(=O)NS(=O)(=O)c4ccc(NCC5CCOCC5)c([N+](=O)[O-])c4)c(Oc4cnc5[nH]ccc5c4)c3)CC2)=C(c2ccc(Cl)cc2)C1 [Venetoclax] + Cc1cc2ncnn2cc1Nc1ncc2c(n1)n(C1CCOCC1)c(=O)n2C [AZD7648] (first compound max 1 µM, 7x7, partner max 10 µM)		0.447	0.881	0.154	0.616	0.28	0.137	0.268	0.416	0.112	1	0.471	0.284	0.197	0.424	0.328	0.823	0.418	0.703	0.495
CC1(C)CCC(CN2CCN(c3ccc(C(=O)NS(=O)(=O)c4ccc(NCC5CCOCC5)c([N+](=O)[O-])c4)c(Oc4cnc5[nH]ccc5c4)c3)CC2)=C(c2ccc(Cl)cc2)C1 [Venetoclax] + C[C@@H]1COCCN1C2=NC(=NC(=C2)C3(CC3)[S@](=N)(=O)C)C4=C5C=CNC5=NC=C4 [AZD6738] (first compound max 1 µM, 7x7, partner max 10 µM)		0.877	1	0.773	0.735	0.444	0.537	0.571	0.852	0.161	1	0.751	0.947	0.276	0.703	0.774	0.855	0.944	0.952	0.678
COc1cccc(OCCCN)c1-c1cc(Nc2cnc(C#N)cn2)n[nH]1 [Prexasertib] + CCc1c2c(nc3ccc(O)cc13)-c1cc3c(c(=O)n1C2)COC(=O)[C@]3(O)CC [SN-38] (first compound max 1 µM, 7x7, partner max 0.3 µM)		0.973	1	0.811	0.698	0.671	0.807	0.948	0.987	0.8	1	0.89	0.984	0.815	0.929	0.843	0.934	0.995	0.996	0.854
